Test results taken from patent US20250101041A1, “POSITIVE ALLOSTERIC MODULATORS OF THE MUSCARINIC ACETYLCHOLINE RECEPTOR M4” (Vanderbilt University, priority 2022, published 2025).

Biological target: T1, human mAChR M4 (Homo sapiens, UniProt P08173)
T1 construct: expressed in transfected cells; host or cells: CHO-K1 (American Type Culture Collection), stably expressing hM4 and Gqi5
T1 sequence (P08173 1-479): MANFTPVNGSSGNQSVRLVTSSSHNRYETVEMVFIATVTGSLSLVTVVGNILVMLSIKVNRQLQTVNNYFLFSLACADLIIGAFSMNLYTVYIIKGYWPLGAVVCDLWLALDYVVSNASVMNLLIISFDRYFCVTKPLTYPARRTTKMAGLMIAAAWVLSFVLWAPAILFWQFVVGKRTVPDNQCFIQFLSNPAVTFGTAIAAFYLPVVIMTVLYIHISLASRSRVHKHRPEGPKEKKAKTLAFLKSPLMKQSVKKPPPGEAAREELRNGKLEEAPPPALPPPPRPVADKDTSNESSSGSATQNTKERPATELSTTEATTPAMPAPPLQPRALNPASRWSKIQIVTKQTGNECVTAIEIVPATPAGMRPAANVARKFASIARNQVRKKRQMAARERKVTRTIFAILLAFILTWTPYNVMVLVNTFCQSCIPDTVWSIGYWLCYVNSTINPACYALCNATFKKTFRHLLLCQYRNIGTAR
Assay: mAChR M4 cell-based functional assay: calcium mobilization (Fluo-4, FDSS), potentiation of EC20 acetylcholine response in hM4-Gqi5 CHO-K1 cells
Conditions: human M4; for Emax at 30 µM: CHO-K1, % ACh maximum at 30 μM; for EC50: potentiation of EC20 acetylcholine response, calcium mobilization
Summary of the method: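 CHO-K1 cells stably co-expressing human M4 and chimeric Gqi5, loaded with Fluo-4 AM (50 min, 37 °C). Compounds in 11-point 1:3 series added first; EC20 acetylcholine added at 144 s and again at 230 s. Calcium read on FDSS at 1 Hz; EC50 and Emax from four-parameter logistic fit of potentiated EC20 response.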

Row | Structure (SMILES) | Emax at 30 µM [%] | EC50 [nM]
1 | Cc1cc(C)c(-c2cnc3c(c2)CN(c2nn4c(=O)ccnc4cc2C)CC3)cn1 [Compound 1-405, 7-(3-(4,6-dimethylpyridin-3-yl)-7,8-dihydro-1,6-naphthyridin-6(5H)-yl)-8-methyl-4H-pyrimido [1,2-b]pyridazin-4-one] | 61 | 259
2 | Cc1cc(=O)n2nc(N3CCc4ncc(-c5cnn(CCN(C)C)c5)cc4C3)c(C)c(C)c2n1 [Compound 1-177, 7-(3-(1-(2-(dimethylamino)ethyl)-1H-pyrazol-4-yl)-7,8-dihydro-1,6-naphthyridin-6(5H)-yl)-2,8,9-trimethyl-4H-pyrimido[1,2-b]pyridazin-4-one] | 84 | 1420
3 | Cc1cc2nccc(=O)n2nc1N1CCc2ncc(Nc3c(F)cncc3F)cc2C1 [Compound 2-154, 7-(3-((3,5-difluoropyridin-4-yl)amino)-7,8-dihydro-1,6-naphthyridin-6(5H)-yl)-8-methyl-4H-pyrimido[1,2-b]pyridazin-4-one] | 90 | 41
4 | Cc1c(N2CCc3ncc(-c4cnn(CCN5CCOCC5)c4)cc3C2)nn2c(=O)cc(C(F)F)nc2c1C [Compound 1-173, 2-(difluoromethyl)-8,9-dimethyl-7-(3-(1-(2-morpholinoethyl)-1H-pyrazol-4-yl)-7,8-dihydro-1,6-naphthyridin-6(5H)-yl)-4H-pyrimido[1,2-b]pyridazin-4-one] | 81 | 338
5 | Cc1c(N2CCc3ncc(-c4cnc(Cl)c(F)c4)cc3C2)nn2c(=O)ccnc2c1C [Compound 1-146, 7-(3-(6-chloro-5-fluoropyridin-3-yl)-7,8-dihydro-1,6-naphthyridin-6(5H)-yl)-8,9-dimethyl-4H-pyrimido[1,2-b]pyridazin-4-one] | 86 | 399
6 | Cc1cc(=O)n2nc(N3CCc4ncc(-c5c(C)nn(C)c5C)cc4C3)c(C)cc2n1 [Compound 1-218, 2,8-dimethyl-7-(3-(1,3,5-trimethyl-1H-pyrazol-4-yl)-7,8-dihydro-1,6-naphthyridin-6(5H)-yl)-4H-pyrimido[1,2-b] pyridazin-4-one] | 92 | 793
7 | Cc1cc2nccc(=O)n2nc1N1CCc2ncc(-c3cccc(C#N)c3C)cc2C1 [Compound 1-437, 2-methyl-3-(6-(8-methyl-4-oxo-4H-pyrimido[1,2-b]pyridazin-7-yl)-5,6,7,8-tetrahydro-1,6-naphthyridin-3-yl)benzonitrile] | 70 | 1010
8 | COCc1cc(=O)n2nc(N3CCc4ncc(-c5ccc(C)o5)cc4C3)c(C)cc2n1 [Compound 1-372, 2-(methoxymethyl)-8-methyl-7-(3-(5-methylfuran-2-yl)-7,8-dihydro-1,6-naphthyridin-6(5H)-yl)-4H-pyrimido[1,2-b] pyridazin-4-one] | 65 | 298
9 | Cc1ccc(-c2cnc3c(c2)CN(c2nn4c(=O)c(C)cnc4c(C)c2C)CC3)cn1 [Compound 1-100, 3,8,9-trimethyl-7-(3-(6-methylpyridin-3-yl)-7,8-dihydro-1,6-naphthyridin-6(5H)-yl)-4H-pyrimido[1,2-b]pyridazin-4-one] | 92 | 134
10 | Cc1ncc(-c2cnc3c(c2)CN(c2nn4c(=O)ccnc4cc2C)CC3)c(C)n1 [Compound 1-420, 7-(3-(2,4-dimethylpyrimidin-5-yl)-7,8-dihydro-1,6-naphthyridin-6(5H)-yl)-8-methyl-4H-pyrimido[1,6-b]pyridazin-4-one] | 93 | 1720
11 | Cc1cc(=O)n2nc(N3CCc4ncc(-c5ccc6nccn6c5)cc4C3)c(C)cc2n1 [Compound 1-220, 7-(3-(imidazo[1,2-a]pyridin-6-yl)-7,8-dihydro-1,6-naphthyridin-6(5H)-yl)-2,8-dimethyl-4H-pyrimido[1,2-b]pyridazin-4-one] | 70 | 747
12 | Cc1cc2nc(C)c(C)c(=O)n2nc1N1CCc2ncc(N3CCCn4nccc43)cc2C1 [Compound 2-13, 7-(3-(6,7-dihydropyrazolo[1,5-a]pyrimidin-4(5H)-yl)-7,8-dihydro-1,6-naphthyridin-6(5H)-yl)-2,3,8-trimethyl-4H-pyrimido[1,2-b]pyridazin-4-one] | 82 | 27
13 | COc1cnccc1-c1cnc2c(c1)CN(c1nn3c(=O)cc(C)nc3cc1C)CC2 [Compound 1-259, 7-(3-(3-methoxypyridin-4-yl)-7,8-1,6-naphthyridin-6(5H)-yl)-2,8-dimethyl-4H-pyrimido[1,2-b]pyridazin-4-one] | 72 | 445
14 | Cc1cc(=O)n2nc(N3CCc4ncc(-c5ccccc5F)cc4C3)c(C)c(C)c2n1 [Compound 1-251, 7-(3-(2-fluorophenyl)-7,8-dihydro-1,6-naphthyridin-6(5H)-yl)-2,8,9-trimethyl-4H-pyrimido[1,2-b]pyridazin-4-one] | 84 | 289
15 | COCc1cc(=O)n2nc(N3CCc4ncc(-c5cnccc5C)cc4C3)c(C)cc2n1 [Compound 1-359, 2-(methoxymethyl)-8-methyl-7-(3-(4-methylpyridin-3-yl)-7,8-dihydro-1,6-naphthyridin-6(5H)-yl)-4H-pyrimido[1,2-b] pyridazin-4-one] | 82 | 136
16 | Cc1cc2nccc(=O)n2nc1N1CCc2ncc(N3CCO[C@H](C)C3)cc2C1 [Compound 2-2, (R)-8-methyl-7-(3-(2-methylmorpholino)-7,8-dihydro-1,6-naphthyridin-6(5H)-yl)-4H-pyrimido[1,2-b]pyridazin-4-one] | 87 | 363
17 | COc1ccc(-c2cnc3c(c2)CN(c2nn4c(=O)cc(C)nc4c(C)c2C)CC3)cc1F [Compound 1-201, 7-(3-(3-fluoro-4-methoxyphenyl)-7,8-dihydro-1,6-naphthyridin-6(5H)-yl)-2,8,9-trimethyl-4H-pyrimido[1,2-b]pyridazin-4-one] | 86 | 603
18 | Cc1c(N2CCc3ncc(C(F)(F)F)cc3C2)nn2c(=O)cc(C(F)(F)F)nc2c1C [Compound 1-39, 8,9-dimethyl-2-(trifluoromethyl)-7-(3-(trifluoromethyl)-7,8-dihydro-1,6-naphthyridin-6(5H)-yl)-4H-pyrimido[1,2-b]pyridazin-4-one] | 86 | 206
19 | Cc1cc2nccc(=O)n2nc1N1CCc2ncc(-c3ccccc3C(F)F)cc2C1 [Compound 1-434, 7-(3-(2-(difluoromethyl)phenyl)-7,8-dihydro-1,6-naphthyridin-6(5H)-yl)-8-methyl-4H-pyrimido[1,2-b]pyridazin-4-one] | 90 | 238
20 | Cc1cc2nccc(=O)n2nc1N1CCc2ncc(Nc3ccccc3Cl)cc2C1 [Compound 2-67, 7-(3-((2-chlorophenyl)amino)-7,8-dihydro-1,6-naphthyridin-6(5H)-yl)-8-methyl-4H-pyrimido[1,2-b]pyridazin-4-one] | 95 | 25
21 | Cc1cc2nccc(=O)n2nc1N1CCc2ncc(-c3cccc4c3CCC4)cc2C1 [Compound 1-436, 7-(3-(2,3-dihydro-1H-inden-4-yl)-7,8-dihydro-1,6-naphthyridin-6(5H)-yl)-8-methyl-4H-pyrimido[1,2-b]pyridazin-4-one] | 78 | 484
22 | Cc1c(N2CCc3ncc(-c4cncc(F)c4)cc3C2)nn2c(=O)cc(C(F)F)nc2c1C [Compound 1-156, 2-(difluoromethyl)-7-(3-(5-fluoropyridin-3-yl)-7,8-dihydro-1,6-naphthyridin-6(5H)-yl)-8,9-dimethyl-4H-pyrimido[1,2-b]pyridazin-4-one] | 95 | 204
23 | Cc1cc2nccc(=O)n2nc1N1CCc2ncc(-c3cccc4ncccc34)cc2C1 [Compound 1-41, 8-methyl-7-(3-(quinolin-5-yl)-7,8-dihydro-1,6-naphthyridin-6(5H)-yl)-4H-pyrimido[1,2-b]pyridazin-4-one] | 83 | 430
24 | Cc1cc(Nc2cnc3c(c2)CN(c2nn4c(=O)ccnc4cc2C)CC3)c(F)cn1 [Compound 2-155, 7-(3-((5-fluoro-2-methylpyridin-4-yl)amino)-7,8-dihydro-1,6-naphthyridin-6(5H)-yl)-8-methyl-4H-pyrimido[1,2-b]pyridazin-4-one] | 94 | 21
25 | Cc1cc2nccc(=O)n2nc1N1CCc2ncc(-c3cn(C)nn3)cc2C1 [Compound 1-321, 8-methyl-7-(3-(1-methyl-1H-1,2,3-triazol-4-yl)-7,8-dihydro-1,6-naphthyridin-6(5H)-yl)-4H-pyrimido[1,2-b]pyridazin-4-one] | 61 | 2180
26 | Cc1cc2nccc(=O)n2nc1N1CCc2ncc(Nc3ccncc3)cc2C1 [Compound 2-97, 8-methyl-7-(3-(pyridin-4-ylamino)-7,8-dihydro-1,6-naphthyridin-6(5H)-yl)-4H-pyrimido[1,2-b]pyridazin-4-one] | 96 | 92
